Laboratory results: patent publication US20190233884A1 (University of Southern California, priority 2016, published 2019)

System: patients with refractory metastatic colorectal cancer (mCRC)
Assay: PFS, OS and disease control in the training (evaluation) cohort of refractory mCRC patients receiving TAS-102 (n=52, Japan), by baseline characteristics, SNP genotype and toxicity
Format: in vivo, human
Conditions: for OS HR (95% CI)‡ / PFS HR (95% CI) ‡: multivariable; for OS HR (95% CI)† / PFS HR (95% CI) †: univariate
Method: All patients underwent the treatment in salvage-line setting. […]
(§1) Genomic DNA was extracted from peripheral whole blood in patients of all cohorts using the QIAmp Kit (Qiagen, Valencia, Calif., USA) according to the manufacturer's protocol (www.qiagen.com). The candidate SNPs were genotyped using PCR-based direct DNA sequence analysis by ABI 3100A Capillary Genetic Analyzer and Sequencing Scanner v1.0 (Applied Biosystems). Amplification of extracted DNA was carried out using both forward and reverse primers for each gene polymorphism as shown in Table 1. […] The investigators analyzing SNPs were blinded to the clinical data of the study patients.
The primary endpoint in this study was progression-free survival (PFS), and the secondary endpoints were overall survival (OS) and disease control rate (DCR). PFS was calculated from the date of starting treatment to the first observation of disease progression or death from any cause. If a patient had no disease progression or death, PFS was censored at the date of last follow up. OS was calculated from the date of starting treatment until the date of death from any cause or the date of the last follow-up, at which point OS was censored. The disease control rate (DCR) was defined as the proportion of patients who achieved a stable disease (SD) or […] according to RECISTv1.1. Chi-square test was used to examine the difference in baseline patient characteristics among the three cohorts. Allelic distribution of all SNPs by ethnicity for deviation from Hardy-Weinberg equilibrium and the allelic frequencies of SNPs were tested using the Chi-square tests with one degree of freedom. The associations between candidate SNPs and disease control, and toxicities were examined using contingency tables and Fisher's exact test. The associations of SNPs with PFS and OS were analysed using Kaplan-Meier curves and the log-rank test. Because the true mode of inheritance of candidate SNPs was not established yet, a codominant or dominant genetic model if appropriate was considered.
All patients underwent the treatment in salvage-line setting. […] In all patients, adverse events were graded according to the Common Terminology Criteria for Adverse Events, version 4.0. […]
as §1, with “tested” for “genotyped”, “Biosystems).” for “Biosystems). Amplification of extracted DNA was carried out using both forward and reverse primers for each gene polymorphism as shown in Table 1.”, “data.” for “data of the study patients.”
The primary endpoint in this study was progression-free survival (PFS), and the secondary endpoints were overall survival (OS) and disease control rate (DCR).

Trifluridine/tipiracil [TAS-102]
Disease Control Rate PD: 10 (71%)
Disease Control Rate SD: 4 (29%)
OS median, months (95% CI) (ATR rs2227928 A/A): 5.7 (2.7, 12.4) months
PFS median, months (95% CI) (ATR rs2227928 A/A): 2.1 (1.6, 3.4) months
OS median, months (95% CI) (ATR rs2227928 A/G): 8.1 (4.9, 15.6) months
PFS median, months (95% CI) (ATR rs2227928 A/G): 2.9 (1.6, 3.4) months
OS HR (95% CI)‡ (ATR rs2227928 A/G vs A/A): 0.68 (0.26, 1.74)
PFS HR (95% CI) ‡ (ATR rs2227928 A/G vs A/A): 0.82 (0.41, 1.63)
OS HR (95% CI)† (ATR rs2227928 A/G vs A/A): 0.71 (0.28, 1.78)
PFS HR (95% CI) † (ATR rs2227928 A/G vs A/A): 0.75 (0.38, 1.51)
OS median, months (95% CI) (ATR rs2227928 Any G): 8.3 (6.3, 15.6) months
PFS median, months (95% CI) (ATR rs2227928 Any G): 3.0 (2.1, 3.7) months
OS HR (95% CI)‡ (ATR rs2227928 Any G vs A/A): 0.50 (0.20, 1.27)
PFS HR (95% CI) ‡ (ATR rs2227928 Any G vs A/A): 0.67 (0.35, 1.29)
OS HR (95% CI)† (ATR rs2227928 Any G vs A/A): 0.57 (0.24, 1.40)
PFS HR (95% CI) † (ATR rs2227928 Any G vs A/A): 0.64 (0.33, 1.23)
PFS median, months (95% CI) (ATR rs2227928 G/G): 3.7 (2.1, 6.6) months
OS HR (95% CI)‡ (ATR rs2227928 G/G vs A/A): 0.18 (0.04, 0.93)
PFS HR (95% CI) ‡ (ATR rs2227928 G/G vs A/A): 0.43 (0.17, 1.08)
OS HR (95% CI)† (ATR rs2227928 G/G vs A/A): 0.28 (0.06, 1.31)
PFS HR (95% CI) † (ATR rs2227928 G/G vs A/A): 0.46 (0.19, 1.10)
OS median, months (95% CI) (BRCA1 rs16941 Any C): 8.3 (5.3, 14.8+) months
PFS median, months (95% CI) (BRCA1 rs16941 Any C): 3.0 (2.0, 4.2) months
OS HR (95% CI)‡ (BRCA1 rs16941 Any C vs T/T): 1.14 (0.46, 2.82)
PFS HR (95% CI) ‡ (BRCA1 rs16941 Any C vs T/T): 1.04 (0.54, 2.00)
OS HR (95% CI)† (BRCA1 rs16941 Any C vs T/T): 0.90 (0.38, 2.15)
PFS HR (95% CI) † (BRCA1 rs16941 Any C vs T/T): 0.87 (0.47, 1.64)
PFS median, months (95% CI) (BRCA1 rs16941 C/C): 2.7 (2.0, 4.2) months
OS HR (95% CI)‡ (BRCA1 rs16941 C/C vs T/T): 0.37 (0.05, 3.07)
PFS HR (95% CI) ‡ (BRCA1 rs16941 C/C vs T/T): 1.66 (0.58, 4.74)
OS HR (95% CI)† (BRCA1 rs16941 C/C vs T/T): 0.28 (0.04, 2.20)
PFS HR (95% CI) † (BRCA1 rs16941 C/C vs T/T): 1.06 (0.38, 2.90)
OS median, months (95% CI) (BRCA1 rs16941 T/C): 8.1 (3.4, 14.8+) months
PFS median, months (95% CI) (BRCA1 rs16941 T/C): 3.2 (1.8, 4.6) months
OS HR (95% CI)‡ (BRCA1 rs16941 T/C vs T/T): 1.36 (0.55, 3.40)
PFS HR (95% CI) ‡ (BRCA1 rs16941 T/C vs T/T): 0.94 (0.47, 1.88)
OS HR (95% CI)† (BRCA1 rs16941 T/C vs T/T): 1.13 (0.47, 2.74)
PFS HR (95% CI) † (BRCA1 rs16941 T/C vs T/T): 0.84 (0.43, 1.62)
OS median, months (95% CI) (BRCA1 rs16941 T/T): 6.3 (4.4, 15.6+) months
PFS median, months (95% CI) (BRCA1 rs799917 A/A): 2.7 (2.0, 4.2) months
OS HR (95% CI)‡ (BRCA1 rs799917 A/A vs G/G): 0.37 (0.05, 3.07)
PFS HR (95% CI) ‡ (BRCA1 rs799917 A/A vs G/G): 1.66 (0.58, 4.74)
OS HR (95% CI)† (BRCA1 rs799917 A/A vs G/G): 0.28 (0.04, 2.20)
PFS HR (95% CI) † (BRCA1 rs799917 A/A vs G/G): 1.06 (0.38, 2.90)
OS median, months (95% CI) (BRCA1 rs799917 Any A): 8.3 (5.3, 14.8+) months
PFS median, months (95% CI) (BRCA1 rs799917 Any A): 3.0 (2.0, 4.2) months
OS HR (95% CI)‡ (BRCA1 rs799917 Any A vs G/G): 1.14 (0.46, 2.82)
PFS HR (95% CI) ‡ (BRCA1 rs799917 Any A vs G/G): 1.04 (0.54, 2.00)
OS HR (95% CI)† (BRCA1 rs799917 Any A vs G/G): 0.90 (0.38, 2.15)
PFS HR (95% CI) † (BRCA1 rs799917 Any A vs G/G): 0.87 (0.47, 1.64)
OS median, months (95% CI) (BRCA1 rs799917 G/A): 8.1 (3.4, 14.8+) months
PFS median, months (95% CI) (BRCA1 rs799917 G/A): 3.2 (1.8, 4.6) months
OS HR (95% CI)‡ (BRCA1 rs799917 G/A vs G/G): 1.36 (0.55, 3.40)
PFS HR (95% CI) ‡ (BRCA1 rs799917 G/A vs G/G): 0.94 (0.47, 1.88)
OS HR (95% CI)† (BRCA1 rs799917 G/A vs G/G): 1.13 (0.47, 2.74)
PFS HR (95% CI) † (BRCA1 rs799917 G/A vs G/G): 0.84 (0.43, 1.62)
OS median, months (95% CI) (BRCA1 rs799917 G/G): 6.3 (4.4, 15.6+) months
OS median, months (95% CI) (BRCA2 rs144848 A/A): 8.3 (5.4, 12.4) months
PFS median, months (95% CI) (BRCA2 rs144848 A/A): 2.7 (2.0, 3.4) months
PFS median, months (95% CI) (BRCA2 rs144848 A/C): 3.5 (1.5, 4.9) months
OS HR (95% CI)‡ (BRCA2 rs144848 A/C vs A/A): 0.97 (0.34, 2.76)
PFS HR (95% CI) ‡ (BRCA2 rs144848 A/C vs A/A): 0.82 (0.39, 1.72)
OS HR (95% CI)† (BRCA2 rs144848 A/C vs A/A): 0.91 (0.33, 2.57)
PFS HR (95% CI) † (BRCA2 rs144848 A/C vs A/A): 0.76 (0.37, 1.56)
OS median, months (95% CI) (BRCA2 rs144848 Any C): 8.1 (2.8, 15.6+) months
PFS median, months (95% CI) (BRCA2 rs144848 Any C): 3.3 (1.6, 4.6) months
OS HR (95% CI)‡ (BRCA2 rs144848 Any C vs A/A): 1.14 (0.46, 2.79)
PFS HR (95% CI) ‡ (BRCA2 rs144848 Any C vs A/A): 0.92 (0.48, 1.78)
OS HR (95% CI)† (BRCA2 rs144848 Any C vs A/A): 1.07 (0.44, 2.58)
PFS HR (95% CI) † (BRCA2 rs144848 Any C vs A/A): 0.82 (0.43, 1.54)
OS median, months (95% CI) (BRCA2 rs144848 C/C): 8.1 (2.7, 8.1+) months
PFS median, months (95% CI) (BRCA2 rs144848 C/C): 2.7 (0.9, 6.0+) months
OS HR (95% CI)‡ (BRCA2 rs144848 C/C vs A/A): 1.62 (0.44, 6.02)
PFS HR (95% CI) ‡ (BRCA2 rs144848 C/C vs A/A): 1.28 (0.47, 3.50)
OS HR (95% CI)† (BRCA2 rs144848 C/C vs A/A): 1.48 (0.41, 5.34)
PFS HR (95% CI) † (BRCA2 rs144848 C/C vs A/A): 0.99 (0.38, 2.59)
OS median, months (95% CI) (CHEK2 rs22236142 Any C): 8.3 (5.4, 15.6+) months
PFS median, months (95% CI) (CHEK2 rs22236142 Any C): 2.6 (2.1, 3.4) months
OS HR (95% CI)‡ (CHEK2 rs22236142 Any C vs G/G): 0.66 (0.26, 1.65)
PFS HR (95% CI) ‡ (CHEK2 rs22236142 Any C vs G/G): 1.15 (0.59, 2.22)
OS HR (95% CI)† (CHEK2 rs22236142 Any C vs G/G): 0.84 (0.35, 2.00)
PFS HR (95% CI) † (CHEK2 rs22236142 Any C vs G/G): 1.33 (0.70, 2.50)
OS median, months (95% CI) (CHEK2 rs22236142 C/C): 7.5 (3.3, 15.6+) months
PFS median, months (95% CI) (CHEK2 rs22236142 C/C): 2.7 (1.6, 4.4) months
OS HR (95% CI)‡ (CHEK2 rs22236142 C/C vs G/G): 0.88 (0.28, 2.77)
PFS HR (95% CI) ‡ (CHEK2 rs22236142 C/C vs G/G): 1.18 (0.50, 2.78)
OS HR (95% CI)† (CHEK2 rs22236142 C/C vs G/G): 0.93 (0.31, 2.81)
PFS HR (95% CI) † (CHEK2 rs22236142 C/C vs G/G): 1.15 (0.49, 2.74)
OS median, months (95% CI) (CHEK2 rs22236142 G/C): 8.3 (4.9, 12.4+) months
PFS median, months (95% CI) (CHEK2 rs22236142 G/C): 2.5 (1.8, 3.5) months
